From publication PMC4795541, “A Rapid and Quantitative Flow Cytometry Method for the Analysis of Membrane Disruptive Antimicrobial Activity” (PLoS ONE, 2016)
Converted amounts (≈) assume the structure as drawn. Marks after values point to notes of the source that are not given here. Where a SMILES comes first, the peptide text is derived from it. Where no end group is shown, it is not given here. [ ]: non-standard residue; d: D form. Phe(ol) = N[C@H](CO)Cc1ccccc1; Dab = NCC[C@H](N)C(=O)O; Dap = NC[C@H](N)C(=O)O; Aib = CC(C)(N)C(=O)O

Legend:
[1] = system: S. aureus (MRSA) ATCC 43300; details: S. aureus (MRSA) ATCC 43300; 90 min incubation; average of 3 assays ± SD
Description: (§1) The bacterial strains; Fusobacterium nucleatum ATCC 25586, Streptococcus mutans Ingbritt, Staphylococcus aureus (MSSA) ATCC 29213; Staphylococcus aureus (MRSA) ATCC 43300; Enterococcus faecalis ATCC 29212; Enterobacter aerogenes ATCC 13048; Pseudomonas aeruginosa strain PAO1-LAC, ATCC 47085; Klebsiella pneumoniae ATCC 13883; Acinetobacter baumannii strain 2208, ATCC 19606; Escherichia coli ATCC 25922 lyophilised or glycerol stocks were obtained from the culture collection of the Oral Health Cooperative Research Centre, The Melbourne Dental School, University of Melbourne, Australia. These strains were selected for this study as they are widely used in antimicrobial studies and are considered to be important pathogens and major targets for antibiotic resistant studies. Bacteria were grown aerobically and maintained by passage at ambient temperature (E. coli, K. pneumoniae, A. baumannii and S. aureus strains) or at 37°C (P. aeruginosa, E. faecalis and E. aerogenes) on horse blood agar (10% v/v defibrinated horse blood, 4.4% w/v Oxoid Blood Agar Base No. 2). S. mutans and F. nucleatum were grown anaerobically (MK3 anaerobic workstation, Don Whitley Scientific Limited, England) and maintained by passage at 37°C on Todd Hewitt agar (3.6% w/v Oxoid Todd-Hewitt Broth, 1.5% w/v sucrose, 1.5% w/v BactoTM Agar, 0.8% w/v Oxoid Yeast Extract) or horse blood agar, respectively. For the antimicrobial peptide assays a 20 mL starter culture was produced by taking single colonies from blood or Todd Hewitt agar plates, respectively, to inoculate either: Luria Broth (LB; 1% w/v BactoTM Tryptone, 1% w/v NaCl, 0.5% w/v Oxoid Yeast Extract, pH 7.5, Thermo Scientific Pty, Ltd, Sydney, Australia) for bacteria; E. coli, K. pneumoniae, P. aeruginosa, A. baumannii, E. faecalis, E. aerogenes and S. aureus which were grown aerobically at 37°C, or Todd Hewitt broth (3.6% w/v Oxoid Todd-Hewitt Broth, 1.5% w/v sucrose, 0.8% w/v Oxoid Yeast 9 Extract) for S. mutans, or Brain Heart Infusion broth (BHI; 3.7% w/v Oxoid BHI, 0.05% w/v L-cysteine) for F. nucleatum which were both grown anaerobically at 37°C. After overnight incubation, 0.5–2.0 mL of the starter culture was used to inoculate the appropriate fresh broth (200 mL) and growth monitored at 650 nm using a spectrophotometer (model 275E; Perkin-Elmer, Sydney, Australia) with culture purity checked by microscopic examination and culture. Bacteria were harvested during late exponential growth phase and viability and bacteria/mL determined using a BacLight viability kit (Invitrogen, Sydney, Australia) and a Quanta SC-MPL flow cytometer (Beckman coulter Pty, Ltd, Sydney, Australia).
(§2) Antibacterial assays were undertaken to determinate the minimum inhibitory concentration (MIC), minimum bactericidal concentration (MBC) and minimum membrane disruptive concentration (MDC) of each of the antimicrobial peptides (AMP) and AMP analogues (S1 Table). For each bacterim a stock solution (2.5 × 10^6 cells/mL) in the respective media was made and an aliquot incubated with AMPs within 15 minutes from viable cell count and stock preparation. All AMPs were dissolved in DMSO and a 500 μM stock solution prepared by adding the respective media and serial dilutions (250–0.244 μM) of the AMP in media (100 μL/well) made just prior addition of bacteria. […] One hundred microliter aliquots of the bacterial stock solution (2.5 × 10^5 cells/well) were added to the AMP serial dilutions and incubated at 37°C for 90 min. Assay preparation and incubations were conducted in aerobic or anaerobic conditions dependent on the bacteria. Bacteria were also incubated in the absence of AMP to serve as a growth control for the assay. After the 90 minute incubation period the antimicrobial activity (MIC, MBC and MDC) was determined as follows;
(§3) For MIC the CLSI broth microdilution assay was followed as we have previously described.

[2] = system: P. aeruginosa strain PAO1-LAC, ATCC 47085; details: P. aeruginosa PAO1-LAC, ATCC 47085; 90 min incubation; average of 3 assays ± SD
Description: as §1, §2, §3

E. faecalis ATCC 29212 [3] = details: E. faecalis ATCC 29212; 90 min incubation; average of 3 assays ± SD
Description: as §1, §2, §3

[4] = system: S. aureus (MSSA) ATCC 29213; details: S. aureus (MSSA) ATCC 29213; 90 min incubation; average of 3 assays ± SD
Description: as §1, §2, §3

K. pneumoniae ATCC 13883 [5] = details: K. pneumoniae ATCC 13883; 90 min incubation; average of 3 assays ± SD
Description: as §1, §2, §3

E. coli ATCC 25922 [6] = details: E. coli ATCC 25922; 90 min incubation; average of 3 assays ± SD
Description: as §1, §2, §3

[7] = system: A. baumannii strain 2208, ATCC 19606; details: A. baumannii strain 2208, ATCC 19606; 90 min incubation; average of 3 assays ± SD
Description: as §1, §2, §3

E. aerogenes ATCC 13048 [8] = details: E. aerogenes ATCC 13048; 90 min incubation; average of 3 assays ± SD
Description: as §1, §2, §3

S. mutans Ingbritt = test: MDC, flow cytometry Syto9/PI membrane disruption assay; format: cell-based, Streptococcus mutans; details: 90 min peptide/bacteria incubation, average of 3 assays ± SD
Description: as §1
Antibacterial assays were undertaken to determinate the minimum inhibitory concentration (MIC), minimum bactericidal concentration (MBC) and minimum membrane disruptive concentration (MDC) of each of the antimicrobial peptides (AMP) and AMP analogues (S1 Table). For each bacterim a stock solution (2.5 × 10^6 cells/mL) in the respective media was made and an aliquot incubated with AMPs within 15 minutes from viable cell count and stock preparation. All AMPs were dissolved in DMSO and a 500 μM stock solution prepared by adding the respective media and serial dilutions (250–0.244 μM) of the AMP in media (100 μL/well) made just prior addition of bacteria. […] After the 90 minute incubation period the antimicrobial activity (MIC, MBC and MDC) was determined as follows;

[9] = system: S. aureus (MRSA) ATCC 43300; details: S. aureus (MRSA) ATCC 43300; 90 min incubation; average of 3 assays ± SD; remark: listed apart in the source
Description: as §1, §2
(§4) For determination of MBC, the CLSI protocol was followed, with the modifications being that due to the rapid action of the AMPs the assay incubation time was shortened from 16–20 hours to 90 minutes.

[10] = system: P. aeruginosa strain PAO1-LAC, ATCC 47085; details: P. aeruginosa PAO1-LAC, ATCC 47085; 90 min incubation; average of 3 assays ± SD; remark: listed apart in the source
Description: as §1, §2, §4

E. faecalis ATCC 29212 [11] = details: E. faecalis ATCC 29212; 90 min incubation; average of 3 assays ± SD; remark: listed apart in the source
Description: as §1, §2, §4

[12] = system: S. aureus (MSSA) ATCC 29213; details: S. aureus (MSSA) ATCC 29213; 90 min incubation; average of 3 assays ± SD; remark: listed apart in the source
Description: as §1, §2, §4

K. pneumoniae ATCC 13883 [13] = details: K. pneumoniae ATCC 13883; 90 min incubation; average of 3 assays ± SD; remark: listed apart in the source
Description: as §1, §2, §4

E. coli ATCC 25922 [14] = details: E. coli ATCC 25922; 90 min incubation; average of 3 assays ± SD; remark: listed apart in the source
Description: as §1, §2, §4

[15] = system: A. baumannii strain 2208, ATCC 19606; details: A. baumannii strain 2208, ATCC 19606; 90 min incubation; average of 3 assays ± SD; remark: listed apart in the source
Description: as §1, §2, §4

E. aerogenes ATCC 13048 [16] = details: E. aerogenes ATCC 13048; 90 min incubation; average of 3 assays ± SD; remark: listed apart in the source
Description: as §1, §2, §4

Compound	MIC [1] [µM]	MIC [2]	MIC (E. faecalis ATCC 29212 [3])	MIC [4] [µM]	MIC (K. pneumoniae ATCC 13883 [5]) [µM]	MIC (E. coli ATCC 25922 [6])	MIC [7]	MIC (E. aerogenes ATCC 13048 [8]) [µM]	MDC (S. mutans Ingbritt)	MBC [9] [µM]	MBC [10] [µM]	MBC (E. faecalis ATCC 29212 [11]) [µM]	MBC [12] [µM]	MBC (K. pneumoniae ATCC 13883 [13]) [µM]	MBC (E. coli ATCC 25922 [14]) [µM]	MBC [15] [µM]	MBC (E. aerogenes ATCC 13048 [16]) [µM]
CC(=O)NC(C)(C)C(=O)N1CCC[C@H]1C(=O)NC(C)(C)C(=O)N[C@@H](C)C(=O)NC(C)(C)C(=O)N[C@@H](C)C(=O)N[C@@H](CCC(N)=O)C(=O)NC(C)(C)C(=O)N[C@H](C(=O)NC(C)(C)C(=O)NCC(=O)N[C@@H](CC(C)C)C(=O)NC(C)(C)C(=O)N1CCC[C@H]1C(=O)N[C@H](C(=O)NC(C)(C)C(=O)NC(C)(C)C(=O)N[C@@H](CCC(=O)O)C(=O)N[C@@H](CCC(N)=O)C(=O)N[C@H](CO)Cc1ccccc1)C(C)C)C(C)C [Alamethicin] (Ac-[Aib]P[Aib]A[Aib]AQ[Aib]V[Aib]GL[Aib]PV[Aib][Aib]EQ[Phe(ol)]; N-terminus assumed)	50.8 ± 3.5 (≈ 99.8 µg/mL)	>250 µM	30.1±9.6^e μM	31.4 ± 7.4 (≈ 61.7 µg/mL)	>250	>250 µM	142.9±19.6^e μM	>250	41.9 ± 8.3 µM	59.2 ± 1.7 (≈ 116 µg/mL)	>250	48.1 ± 5.4 (≈ 94.5 µg/mL)	27.9 ± 6.9 (≈ 54.8 µg/mL)	>250	>250	>250	>250
CC[C@H](C)[C@H](NC(=O)CN)C(=O)NCC(=O)N[C@@H](CCN)C(=O)N[C@@H](Cc1ccccc1)C(=O)N[C@@H](CC(C)C)C(=O)N[C@@H](Cc1c[nH]cn1)C(=O)N[C@@H](CO)C(=O)N[C@@H](C)C(=O)N[C@@H](CCN)C(=O)N[C@@H](CCN)C(=O)N[C@@H](Cc1ccccc1)C(=O)NCC(=O)N[C@@H](CCN)C(=O)N[C@@H](C)C(=O)N[C@@H](Cc1ccccc1)C(=O)N[C@H](C(=O)NCC(=O)N[C@@H](CCC(=O)O)C(=O)N[C@H](C(=O)N[C@@H](CCSC)C(=O)N[C@@H](CC(N)=O)C(=O)N[C@@H](CO)C(N)=O)[C@@H](C)CC)C(C)C [Magainin-Dab] (H-GIG[Dab]FLHSA[Dab][Dab]FG[Dab]AFVGEIMNS-NH2; N-terminus assumed)	–	–	–	–	–	–	–	–	>200^c μM	–	–	–	–	–	–	–	–
CC[C@H](C)[C@H](NC(=O)CN)C(=O)NCC(=O)N[C@@H](CN)C(=O)N[C@@H](Cc1ccccc1)C(=O)N[C@@H](CC(C)C)C(=O)N[C@@H](Cc1c[nH]cn1)C(=O)N[C@@H](CO)C(=O)N[C@@H](C)C(=O)N[C@@H](CN)C(=O)N[C@@H](CN)C(=O)N[C@@H](Cc1ccccc1)C(=O)NCC(=O)N[C@@H](CN)C(=O)N[C@@H](C)C(=O)N[C@@H](Cc1ccccc1)C(=O)N[C@H](C(=O)NCC(=O)N[C@@H](CCC(=O)O)C(=O)N[C@H](C(=O)N[C@@H](CCSC)C(=O)N[C@@H](CC(N)=O)C(=O)N[C@@H](CO)C(N)=O)[C@@H](C)CC)C(C)C [Magainin-Dap] (H-GIG[Dap]FLHSA[Dap][Dap]FG[Dap]AFVGEIMNS-NH2; N-terminus assumed)	–	–	–	–	–	–	–	–	>200^c μM	–	–	–	–	–	–	–	–
GIGKFLHSAKKFGKAFVGEIMNS-NH2 [Magainin II]	>250	26.1±1.2^e μM	>250 µM	>250	132.2 ± 28.5	29.5±3.7^e μM	15.1±1.53^e μM	>250	–	>250	56.3 ± 4.2	>250	>250	142.3 ± 19.5	48.1 ± 12.4	20.0 ± 1.0	>250
GIGRFLHSARRFGRAFVGEIMNS-NH2 [Magainin-Arg]	–	–	–	–	–	–	–	–	42.5±5.7^c μM	–	–	–	–	–	–	–	–
GIGXFLHSAXXFGXAFVGEIMNS-CONH2 [Magainin-Orn, magainin II analogue, all lysine residues substituted with ornithine]	–	–	–	–	–	–	–	–	>200^c μM	–	–	–	–	–	–	–	–
